Laboratory results: patent US20240158446A1, “CYCLIC COMPOUND HAVING SELECTIVE INHIBITORY ACTION ON KRAS OVER HRAS AND NRAS” (CHUGAI SEIYAKU KABUSHIKI KAISHA, priority 2021, published 2024)

How the values were obtained:
[1] = molecular target: GDP-bound HRAS wild-type protein (Homo sapiens, UniProt P01112); assay: Binding to HRAS by surface plasmon resonance (SPR), Single Cycle Kinetics; settings: SPR, GDP-bound HRAS wild-type protein vs GDP-bound KRAS wild-type protein
[2] = molecular target: GDP-bound NRAS wild-type protein (Homo sapiens, UniProt P01111); assay: Binding to NRAS by surface plasmon resonance (SPR), Single Cycle Kinetics; settings: SPR, GDP-bound NRAS wild-type protein vs GDP-bound KRAS wild-type protein
GDP-bound NRAS wild-type protein, sequence (P01111 whole entry): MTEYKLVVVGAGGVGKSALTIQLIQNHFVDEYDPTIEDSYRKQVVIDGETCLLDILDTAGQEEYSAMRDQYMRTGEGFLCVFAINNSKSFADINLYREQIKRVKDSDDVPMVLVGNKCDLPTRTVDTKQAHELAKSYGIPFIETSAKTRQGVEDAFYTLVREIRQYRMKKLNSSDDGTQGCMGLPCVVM

GDP-bound HRAS wild-type protein, sequence (P01112 whole entry): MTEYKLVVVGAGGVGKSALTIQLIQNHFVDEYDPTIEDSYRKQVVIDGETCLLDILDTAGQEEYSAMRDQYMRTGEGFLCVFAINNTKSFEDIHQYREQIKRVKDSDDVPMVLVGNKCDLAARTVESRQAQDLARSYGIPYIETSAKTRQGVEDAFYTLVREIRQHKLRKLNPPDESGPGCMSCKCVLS

Row | Compound | HRAS/KRAS (ratio of KD value with respect to HRAS to KD value with respect to KRAS) [1] | NRAS/KRAS (ratio of KD value with respect to NRAS to KD value with respect to KRAS) [2]
1 | CC[C@H](C)[C@@H]1NC(=O)[C@H](CC)N(C)C(=O)C[C@@H](C(=O)N2CCOCC2)N(C)C(=O)[C@H](C2CCCC2)N(C)C(=O)C2(CCCC2)NC(=O)[C@@H]2CCCN2C(=O)[C@H](CCc2cc(F)c(C(F)(F)F)c(F)c2)NC(=O)CN(C)C(=O)[C@H](Cc2ccc(C(F)(F)F)cc2)N2CCCC[C@@H](C2=O)N(C)C(=O)CN(C)C1=O [PP0550] | B (a compound having 3 or more and less than 10 is denoted as B) | B (a compound having 3 or more and less than 10 is denoted as B)
2 | CC[C@H](C)[C@@H]1NC(=O)[C@H](CC(C)C)N(C)C(=O)C[C@@H](C(=O)N2CCOCC2)N(C)C(=O)[C@H](C2CCCC2)N(C)C(=O)C2(CCCC2)NC(=O)[C@@H]2CCCN2C(=O)[C@H](CCc2cc(F)c(C(F)(F)F)c(F)c2)NC(=O)CN(C)C(=O)[C@H](Cc2ccc(C(F)(F)F)cc2)N2CCCC[C@@H](C2=O)N(C)C(=O)[C@H](CC)N(C)C1=O [PP0551] | B (a compound having 3 or more and less than 10 is denoted as B) | C (A compound having a KD ratio of 0.1 or more and less than 3 is denoted as C)
3 | CC[C@H](C)[C@@H]1NC(=O)[C@H](CC(C)C)N(C)C(=O)C[C@@H](C(=O)N2C3CCC2COC3)N(C)C(=O)[C@H](C2CCCC2)N(C)C(=O)C2(CCCC2)NC(=O)[C@@H]2CCCN2C(=O)[C@H](CCc2cc(F)c(C(F)(F)F)c(F)c2)NC(=O)CN(C)C(=O)[C@H](Cc2ccc(C(F)(F)F)cc2)N2CCCC[C@@H](C2=O)N(C)C(=O)CN(C)C1=O [PP0573] | B (a compound having 3 or more and less than 10 is denoted as B) | B (a compound having 3 or more and less than 10 is denoted as B)
4 | CC[C@H](C)[C@@H]1NC(=O)[C@@H](CC(C)C)N(C)C(=O)C[C@@H](C(=O)N2CCOCC2)N(C)C(=O)[C@H](C2CCCC2)N(C)C(=O)C2(CCCC2)NC(=O)[C@@H]2CCCN2C(=O)[C@H](CCc2cc(F)c(C(F)(F)F)c(F)c2)NC(=O)CN(C)C(=O)[C@H](Cc2ccc(C(F)(F)F)cc2)N2CCCC[C@@H](C2=O)N(C)C(=O)CN(C)C1=O [PP0591] | B (a compound having 3 or more and less than 10 is denoted as B) | B (a compound having 3 or more and less than 10 is denoted as B)
5 | CC[C@H](C)[C@@H]1NC(=O)[C@H](CC(C)C)N(C)C(=O)C[C@@H](C(=O)N(C)C)N(C)C(=O)[C@H](C2CCCC2)N(C)C(=O)C2(CCCC2)NC(=O)[C@@H]2CCCN2C(=O)[C@H](CCc2ccc(C(F)(F)F)c(Cl)c2)NC(=O)CN(C)C(=O)[C@H](Cc2ccc(C(F)(F)F)cc2)N2CC=CCOC[C@H](C2=O)N(C)C(=O)CN(C)C1=O [PP0628] | C (A compound having a KD ratio of 0.1 or more and less than 3 is denoted as C) | C (A compound having a KD ratio of 0.1 or more and less than 3 is denoted as C)
6 | CC[C@H](C)[C@@H]1NC(=O)[C@H](CC(C)C)N(C)C(=O)C[C@@H](C(=O)N(C)C)N(C)C(=O)[C@H](C2CCCC2)N(C)C(=O)C2(CCCC2)NC(=O)[C@@H]2CCCN2C(=O)[C@H](CCc2ccc(C(F)(F)F)c(Cl)c2)NC(=O)CN(C)C(=O)[C@H](Cc2ccc(C)cc2)N2CC=CCOC[C@H](C2=O)N(C)C(=O)CN(C)C1=O [PP0629] | C (A compound having a KD ratio of 0.1 or more and less than 3 is denoted as C) | B (a compound having 3 or more and less than 10 is denoted as B)
7 | CCO[C@@H]1C[C@H]2C(=O)NC3(CCC3)C(=O)N(C)[C@@H](C3CCCC3)C(=O)N(CC)[C@H](C(=O)N3CCOCC3)CC(=O)N(C)[C@@H](CC(C)C)C(=O)N[C@@H]([C@@H](C)CC)C(=O)N(C)CC(=O)N(C)[C@H]3CCCCCN(C3=O)[C@@H](Cc3ccc(C(F)(F)F)cc3)C(=O)N(C)CC(=O)N[C@@H](CCc3cc(F)c(C(F)(F)F)c(F)c3)C(=O)N2C1 [PP0638] | B (a compound having 3 or more and less than 10 is denoted as B) | B (a compound having 3 or more and less than 10 is denoted as B)
8 | CCO[C@@H]1C[C@H]2C(=O)NC3(CCC3)C(=O)N(C)[C@@H](C3CCCC3)C(=O)N(CCC3CCC3)[C@H](C(=O)N3CCOCC3)CC(=O)N(C)[C@@H](CC(C)C)C(=O)N[C@@H]([C@@H](C)CC)C(=O)N(C)CC(=O)N(C)[C@H]3CCCCCN(C3=O)[C@@H](Cc3ccc(C(F)(F)F)cc3)C(=O)N(C)CC(=O)N[C@@H](CCc3cc(F)c(C(F)(F)F)c(F)c3)C(=O)N2C1 [PP0640] | B (a compound having 3 or more and less than 10 is denoted as B) | B (a compound having 3 or more and less than 10 is denoted as B)
